The subject of data set [1] is PC12 cells. The data set is described as follows: In vitro intracellular antioxidation: [3H]-thymidine uptake by PC12 cells under 6-hydroxy-dopamine oxidative stress. It counts as cell-based. The conditions noted are these: 0.5 mM 6-hydroxy-dopamine 24 hour. The procedure: One of the main characteristics of the oxidative effects in PC12 cells are mimicked by 6-hydroxy-dopamine which is a false neurotransmitter taken up by the cells. Therefore, 6-hydroxy-dopamine was used as another oxidative agent and tested the protective antioxidant efficiencies of compounds A-D within the cells.
With reference now to FIG. 2. To this end, PC12 cells were subjected to high concentration (0.5 mM) of 6-hydroxy-dopamine (6-HO-DA) for 24 hour, in the presence of 0.3 mM or 0.8 mM of compounds A-D or 1 mM of reduced glutathione (GSH) a natural antioxidant, as shown in the front row of FIG. 2. A similar set of cells was treated with the same concentrations of compounds A-D and of reduced glutathione, yet without 6-hydroxy-dopamine, as shown in the back row of FIG. 2. Due to the high lipophylicity of the antioxidants used, they were first dissolved in dimethyl sulfoxide (DMSO), then in water and were applied to the cells in a final concentration of 3% DMSO. [^3H]-thymidine was added to the cells (1 μCi/100,000 cells) six hours prior to the end of the 24 hour period.
The results presented in FIG. 2 are the mean of triplicate wells taken from three independent cell batches, wherein control represent untreated cells and is defined as 100% [^3H]-thymidine uptake. The effect of DMSO on the cells was tested separately as shown.

Data set [2] deals with PC12 cells. The data set is described as follows: In vitro extracellular antioxidation: [3H]-thymidine uptake by PC12 cells under dopamine oxidative stress. It counts as cell-based. The following applies: 0.5 mM dopamine 24 hours. As for the experimental part: Compounds A-D were assayed in vitro for their extracellular antioxidant activities. The assays were carried out with PC12 cells (Offen et al., 1996) subjected to a high dose of dopamine which confers oxidative stress to these cells by forming oxidation products during its oxidation in the growth medium, i.e., extracellularly.
With reference now to FIG. 1. To this end, PC12 cells were subjected to high concentration of dopamine (0.5 mM) for 24 hours in the presence of increasing concentrations (0 mM, 0.03 mM, 0.1 mM, 0.3 mM and 0.9 mM) of the various compounds A-D. [^3H]-thymidine was added to the cells (1 μCi/100,000 cells) six hours before the end of the 24 hours period. Due to the high lipophylicity of compounds A-D, the compounds were first dissolved in dimethyl sulfoxide (DMSO) and then in water and were applied to the cells in a final concentration of 3% DMSO. The effect of 3% DMSO on the cells was tested separately and the values presented in FIG. 1 are after the appropriate corrections.
[^3H]-thymidine uptake was measured in triplicate wells containing cells pretreated with dopamine alone and dopamine with each of compounds A-D at the concentrations as indicated above. The results presented in FIG. 1 show the mean of triplicate wells taken from three independent cell batches, wherein control represent cells treated only with 3% DMSO and is defined as 100% [^3H]-thymidine uptake (not shown).

A short description of data set [3]: Crossing the blood-brain-barrier: compound level in brain extracts by HPLC after IP injection. The class given is in vivo, C57BL/6J mice. The following applies: mice. The procedure:
Detection of compound j (referred to in this Example also as CEA) was established using high performance liquid chromatography (HPLC). To this end, CEA was treated with a fluorescent thiolyte reagent (monobromobimane reagent) and analyzed on an HPLC column.
Crossing the blood-brain-barrier: In vivo experiments were carried out on C57BL/6J mice (15 grams) injected IP with compound J. After incubation (15 min, 60 min or 4 hours) the mice were anesthetized with ether and blood samples were drawn. Then mice underwent perfusion with 50 ml of saline, injected into the right ventricle. The levels of […] in the brain and in the plasma were detected by selective fluorescent labeling using high performance liquid chromatography (HPLC).
Increasing amounts of compound J were injected IP and 15 min later, mice were perfused with saline and compound J levels in the brain extracts were determined by HPLC chromatography (FIG. 5b), as compared to a control, pure, uninjected compound J (FIG. 5a).

A further data set has as its system GSH. The data set is described as follows: Brain GSH levels after IP injection of compound J (HPLC). It counts as in vivo, C57BL/6J mice. The conditions noted are these: mice brain extract after IP injection.
The subject of data set [4] is Neuroblastoma SHSY5Y (NB) cells. The experiment in a line: Protection from oxidative stress in vitro, neutral red survival assay. The class given is cell-based. As for the experimental part:
Protection from oxidative stress in vitro: Neuroblastoma SHSY5Y (NB) cells were maintained in Dulbeco's Modified Eagle's Medium (DMEM), supplemented with 8% FCS and 8% horse serum, penicillin (25 μg/ml), streptomycin (25 μg/ml), 2 mM L-glutamine and 400 μg/ml G418 (Gibco/BRL). For protection experiments cells were subcultured (in 2% serum) to poly-L-lysine-coated 96-well microtiter plates (Nunc), 100 μl of 5×10^5 cells/ml, CEA was applied to the cells in each well and 4 hours later DA, L-dopa (levodopa), 6-OHDA and MPP+ were added for 24 hours.
Survival was assayed by adding neutral red (0.34%, Sigma) to cells in DCCM-1 medium (0.1 ml/well, Bet-Haemek) and incubation for 2 hour at 37° C. The cells were then washed with cold PBS containing 10 mM MgCl2 and the dye was dissolved in 50% ethanol in 50% Somerson buffer (70 mM sodium citrate, 30 mM citric acid, 0.1 N HCl). ELISA reader (590 nm) was used to measure the remaining color intensity.

Data set [5] concerns endogenous reduced glutathione (GSH). The experiment in a line: In vivo antioxidation: striatum/serum endogenous GSH after IP injection. Also on record: species or system Balb/c mice. The following applies: mice, injected IP, 100-300 mg/kg, three hours post injection. The procedure:
With reference now to FIG. 3. To this end, three groups of two months old Balb/c mice containing two animals in each group were injected intraperitonealy (IP) with 100-300 mg/kg body weight of compound A. Blood samples were drawn from the tail three hours post injection and then the animals were sacrificed and either the corpus striatum or the whole brain were removed and analyzed for GSH levels.
GSH levels were determined using the experimental procedures as described hereinbelow and/or the GSH-400 kit (Oxis International, Inc.).
Preparation of brain homogenates: Animals were rapidly killed and exsanguinated to remove excess blood from the brain. The brain of each animal was rinsed in a beaker containing water, lightly blotted to dry and were weighted. The striatums were transferred into a hand-homogenizer tube and each was homogenized using a constant number (e.g., 20) of up and down strokes of the hand-homogenizer pestle. Each of the homogenates was poured into a centrifuge tube and centrifuged for 10,000×g for 5 min. The supernatant was used for GSH determination as follows.
GSH Assay: For each measurement, 200 μl of sample were incubated with 20 μl DTNB [5,5′ dithio bis(2-nitrobenzoic acid)] for 1 hour in 37° C. Final absorbance was measured at 400 nm. Similar results were obtained using the GSH-400 kit. […]

`CCOC(=O)CNC(=O)C(CS)NC(=O)CCC(N)C(=O)O` (stereo not shown) [compound D, Glutathione ethyl ester]: the “Increase of [3H]-thymidine uptake of 6-hydroxy-dopamine treated cells” value in the data set with PC12 cells [1] (compound at 0.3 mM) and with PC12 cells [1] (compound at 0.8 mM) was “Ca. 3.5” each time. Moreover, the “Increase of [3H]-thymidine uptake” value with PC12 cells [2] (compound at 0.03 mM) and with PC12 cells [2] (compound at 0.1 mM) was “Ca. 2.5” each time.
For `CC(=O)NC(CS)C(N)=O` (stereo not shown) [compound J], the “Compound level in the brain” value in data set [3] (IP injection 0.25-4 mg, 15 min, brain extracts) is recorded as “concentration-dependent increase”. Besides, the “Crossing of the BBB” value in data set [3] (IP injection, fluorescent labeling and HPLC) was “crosses the BBB”. In addition, the “Increase of GSH levels over untreated animals” value in the data set on GSH is reported as “up to 46%”. Besides, the Cell survival result in data set [4] (0.3 mM compound, neutral red assays) was “up to 95%”. In addition, the “Protection of cells against toxicity (>50%) of DA, L-dopa, 6-OHDA and MPP+” value in data set [4] (compound at 0.1 mM, DA, L-dopa, 6-OHDA 0.1-0.25 mM, MPP+ 0.5-2 mM, 24 hours) is on record as “protect the cells”.
As for `CCOC(=O)C(NC(C)=O)C(C)(C)S` (stereo not shown) [compound B, N-acetyl-penicillamine ethyl ester], the “Increase of [3H]-thymidine uptake” value with PC12 cells [2] (compound at 0.03 mM) was “Ca. 1.5”.
For `CCOC(=O)[C@H](CS)NC(C)=O` [compound A, N-acetyl cysteine ethyl ester], in data set [5], the “Crossing of the blood brain barrier” value was “crosses the blood brain barrier” and the “Level of endogenous GSH at the striatum” value is given as “increases the level of endogenous GSH”.
As for `CC(=O)N[C@H](C(=O)O)C(C)(C)S` [compound C, N-acetyl-β,β-dimethyl cysteine], the “Increase of [3H]-thymidine uptake of 6-hydroxy-dopamine treated cells” value with PC12 cells [1] (compound at 0.3 mM) is on record as “Ca. 1.5”.

Values taken from patent publication US20030083266A1 (priority 2002, published 2003).
